Data published in ChEMBL document CHEMBL1138227, “N1-substituted thymine derivatives as mitochondrial thymidine kinase (TK-2) inhibitors” (J Med Chem, 2006).

What was measured:
Deoxynucleoside kinase = biological target: T1, Deoxynucleoside kinase (Drosophila melanogaster, UniProt Q9XZT6); assay: Inhibition of [3H]methyl dThd phosphorylation by Drosophila melanogaster dNK
T1 sequence (Q9XZT6 whole entry): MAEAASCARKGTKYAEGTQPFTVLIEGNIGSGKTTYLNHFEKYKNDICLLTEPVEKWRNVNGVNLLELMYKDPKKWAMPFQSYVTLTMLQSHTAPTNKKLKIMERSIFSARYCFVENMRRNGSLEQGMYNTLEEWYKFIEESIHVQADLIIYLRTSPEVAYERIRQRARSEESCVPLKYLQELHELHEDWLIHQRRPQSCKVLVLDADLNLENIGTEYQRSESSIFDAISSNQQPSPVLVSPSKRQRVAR

[1] = Cytotoxicity against human OST TK- cells expressing HSV1 TK in presence of 10 uM 1-[6-(triphenylmethoxy)hexyl]thymine; assay type: cell-based
[2] = Cytotoxicity against human OST TK- cells expressing HSV1 TK in presence of 10 uM 1-[6-[1,1-(diphenyl)-1-(4-pyridyl)methoxy]hexyl]thymine; assay type: cell-based
[3] = Cytotoxicity against human OST TK- cells expressing HSV1 TK in presence of 5 uM 1-[6-[1,1-(diphenyl)-1-(4-pyridyl)methoxy]hexyl]thymine; assay type: cell-based
[4] = Cytotoxicity against human OST TK- cells expressing HSV1 TK in presence of 2.5 uM 1-[6-(triphenylmethoxy)hexyl]thymine; assay type: cell-based
[5] = Cytotoxicity against human OST TK- cells expressing HSV1 TK in presence of 5 uM 1-[6-(triphenylmethoxy)hexyl]thymine; assay type: cell-based
[6] = Cytotoxicity against human OST TK- cells expressing HSV1 TK; assay type: cell-based
[7] = Cytotoxicity against human OST TK- cells expressing HSV1 TK in presence of 2.5 uM 1-[6-[1,1-(diphenyl)-1-(4-pyridyl)methoxy]hexyl]thymine; assay type: cell-based
Thymidine kinase = biological target: T2, Thymidine kinase (Human alphaherpesvirus 1, UniProt Q9QNF7); assay: Inhibition of [3H]methyl dThd phosphorylation by HSV1 TK
T2 sequence (Q9QNF7 whole entry): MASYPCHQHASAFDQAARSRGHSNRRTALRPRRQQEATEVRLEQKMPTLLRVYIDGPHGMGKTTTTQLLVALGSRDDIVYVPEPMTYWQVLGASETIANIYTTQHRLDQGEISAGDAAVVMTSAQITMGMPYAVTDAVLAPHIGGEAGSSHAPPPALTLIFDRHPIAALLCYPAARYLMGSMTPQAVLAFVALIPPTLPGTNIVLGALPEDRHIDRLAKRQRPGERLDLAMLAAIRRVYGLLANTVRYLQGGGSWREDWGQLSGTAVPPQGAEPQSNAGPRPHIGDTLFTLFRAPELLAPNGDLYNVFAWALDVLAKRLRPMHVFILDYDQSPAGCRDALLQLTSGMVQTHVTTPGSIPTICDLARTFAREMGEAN

[8] = biological target: T3, Thymidine kinase 2, mitochondrial (Homo sapiens, UniProt O00142); assay: Inhibition of [3H]methyl dThd phosphorylation by TK2
T3 sequence (O00142 whole entry): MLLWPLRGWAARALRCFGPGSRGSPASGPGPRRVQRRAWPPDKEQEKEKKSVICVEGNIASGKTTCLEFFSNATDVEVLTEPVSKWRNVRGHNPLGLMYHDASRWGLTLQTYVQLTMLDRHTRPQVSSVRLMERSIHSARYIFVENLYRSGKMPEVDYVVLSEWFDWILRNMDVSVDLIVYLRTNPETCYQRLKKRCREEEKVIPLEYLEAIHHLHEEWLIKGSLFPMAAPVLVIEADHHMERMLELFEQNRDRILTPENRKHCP

[9] = biological target: T3, Thymidine kinase 2, mitochondrial; assay: Inhibition of TK2

Row | SMILES | IC50 (Deoxynucleoside kinase) | IC50 [1] | IC50 [2] | IC50 [3] | IC50 [4] | IC50 [5] | IC50 [6] | IC50 [7] | IC50 (Thymidine kinase) | IC50 [8] | Ki [9]
1 | Cc1cn(C/C=C\COC(c2ccccc2)(c2ccccc2)c2ccccc2)c(=O)[nH]c1=O | 3.3 µM |  |  |  |  |  |  |  |  |  | 
2 | Cc1cn([C@@H]2O[C@H](CO)[C@@H](O)[C@@H]2O)c(=O)[nH]c1=O |  | 0.15 µM | 0.37 µM | 0.24 µM | 0.055 µM | 0.1 µM | 0.0062 µM | 0.12 µM |  |  | 
3 | Cc1cn(CCCCCOC(c2ccccc2)(c2ccccc2)c2ccccc2)c(=O)[nH]c1=O | 15 µM |  |  |  |  |  |  |  | 32 µM | 2.5 µM | 
4 | Cc1cn(CCCCCCOC(c2ccccc2)(c2ccccc2)c2ccccc2)c(=O)[nH]c1=O | 17 µM | 0.15 µM | 0.041 µM | 0.033 µM | 0.055 µM | 0.1 µM |  | 0.018 µM | 3.7 µM | 0.5 µM | 
5 | CNC(=O)c1ccc(C(OCCCCCCn2cc(C)c(=O)[nH]c2=O)(c2ccccc2)c2ccccc2)cc1 | 3.5 µM |  |  |  |  |  |  |  | 0.7 µM | 0.39 µM | 
6 | Cc1cn(CCCCCCCOC(c2ccccc2)(c2ccccc2)c2ccccc2)c(=O)[nH]c1=O | 32 µM |  |  |  |  |  |  |  | ≥ 50 µM | 4.7 µM | 
7 | Cc1cn(CCOCCOC(c2ccccc2)(c2ccccc2)c2ccc(Cl)cc2)c(=O)[nH]c1=O | 45 µM |  |  |  |  |  |  |  | 2.7 µM | 5.2 µM | 
8 | Cc1cn(CCOCCOC(c2ccccc2)(c2ccccc2)c2ccncc2)c(=O)[nH]c1=O | 35 µM |  |  |  |  |  |  |  | 21 µM | 23 µM | 
9 | Cc1cn(CCOCCOC(c2ccccc2)(c2ccccc2)c2ccccc2)c(=O)[nH]c1=O | 56 µM |  |  |  |  |  |  |  | 17 µM | 9.7 µM | 
10 | Cc1cn(C/C=C\COC(c2ccccc2)(c2ccccc2)c2cc[n+](C)cc2)c(=O)[nH]c1=O | 144 µM |  |  |  |  |  |  |  | > 500 µM | 114 µM | 
11 | Cc1cn(CCCCCCOC(c2ccccc2)(c2ccccc2)c2ccc(Cl)cc2)c(=O)[nH]c1=O | 47 µM |  |  |  |  |  |  |  | 1 µM | 1.9 µM | 
12 | Cc1cn(CCCCCCOC(c2ccccc2)(c2ccccc2)c2ccncc2)c(=O)[nH]c1=O | 2.7 µM | 0.37 µM | 0.11 µM | 0.081 µM | 0.12 µM | 0.24 µM |  | 0.05 µM | 2 µM | 0.47 µM | 0.29 µM
13 | Cc1cn(C/C=C\COC(c2ccccc2)(c2ccccc2)c2ccc(Cl)cc2)c(=O)[nH]c1=O | 5.7 µM |  |  |  |  |  |  |  | 18 µM | 2.4 µM | 
14 | Cc1cn(C/C=C\COC(c2ccccc2)(c2ccccc2)c2ccncc2)c(=O)[nH]c1=O | 3.4 µM |  |  |  |  |  |  |  | 25 µM | 1.8 µM | 
15 | Cc1cn(CCCCCCCCOC(c2ccccc2)(c2ccccc2)c2ccccc2)c(=O)[nH]c1=O | 30 µM |  |  |  |  |  |  |  | > 500 µM | 45 µM | 
16 | Cc1cn(CCCOC(c2ccccc2)(c2ccccc2)c2ccccc2)c(=O)[nH]c1=O | 21 µM |  |  |  |  |  |  |  | 46 µM | 45 µM | 
17 | CNC(=O)c1ccc(C(OC/C=C\Cn2cc(C)c(=O)[nH]c2=O)(c2ccccc2)c2ccccc2)cc1 | 1.6 µM |  |  |  |  |  |  |  | 42 µM | 1.9 µM | 
18 | Cc1cn(CCCCCCOC(c2ccccc2)(c2ccccc2)c2cc[n+](C)cc2)c(=O)[nH]c1=O | 29 µM |  |  |  |  |  |  |  | 41 µM | 23 µM | 
19 | Nc1nc2c(ncn2COC(CO)CO)c(=O)[nH]1 [GANCICLOVIR] |  | 0.041 µM | 0.11 µM | 0.081 µM | 0.018 µM | 0.033 µM | 0.0019 µM | 0.05 µM |  |  | 
